According to patent US5011992A, “Pharmacologically active substituted benzamides” (Bristol-Myers Squibb Company, priority 1989, dated 1991):
Where a name gives a salt, the structure may show the parent alone.

biological target: T1, dopaminergic (D2) receptors (Rattus norvegicus, UniProt P61169); assay: 3H-Spiperone Displacement (striatal rat brain homogenates); format: binding; settings: rat striatal homogenate, approx. 100 pM 3H-spiperone, 37° C., 15 min
T1 construct: Homogenates (Brinkmann Polytron) of the corpus striatum in cold HEPES.KOH buffer; from tissue; host or cells: rat corpus striatum (washed membrane homogenate; rats from Charles River)
Experimental: (A) ^3 H-Spiperone Displacement
Rats (150±10 g; Charles River) were decapitated, the corpus striatum dissected out and frozen on dry ice. The tissues were pooled and stored at -80° C. until used. Homogenates (Brinkmann Polytron) of the corpus striatum in cold HEPES.KOH buffer (final pH=7.4) were centrifuged at 39,000× G. The supernatant was discarded and the pellets were re-suspended in HEPES.KOH buffer and re-centrifuged as above.
Tests to determine the Inhibitory Concentration50 (IC50) of the compounds of Formula I and reference compounds versus ^3 H-spiperone were conducted as follows. Tubes containing either 100 μL of buffer mixture (for total binding), 100 μL of buffer mixture plus 100 μL of 10^-4 M D(+)-butaclamol (for blanks, i.e. non-specific binding), or 100 μL of buffer mixture containing 10^-7, 10^-6 or 10^-5 M test compound were prepared. To each were added 100 μL of a solution of ^3 H-spiperone (New England Nuclear) in buffer mixture (2000 c.p.m. in the incubation mixture) and 800 μL of the striatal tissue suspension. The tubes were then diluted to 1 mL with buffer mixture, giving a final concentration of 10^-8, 10^-7 or 10^-6 M test compound and approximately 100 pM ^3 H-spiperone. The samples were incubated at 37° C. for 15 minutes, filtered in vacuo on glass fiber filters and counted by liquid scintillation spectrometry. […] All samples were run in duplicate.

T1 sequence (P61169 whole entry): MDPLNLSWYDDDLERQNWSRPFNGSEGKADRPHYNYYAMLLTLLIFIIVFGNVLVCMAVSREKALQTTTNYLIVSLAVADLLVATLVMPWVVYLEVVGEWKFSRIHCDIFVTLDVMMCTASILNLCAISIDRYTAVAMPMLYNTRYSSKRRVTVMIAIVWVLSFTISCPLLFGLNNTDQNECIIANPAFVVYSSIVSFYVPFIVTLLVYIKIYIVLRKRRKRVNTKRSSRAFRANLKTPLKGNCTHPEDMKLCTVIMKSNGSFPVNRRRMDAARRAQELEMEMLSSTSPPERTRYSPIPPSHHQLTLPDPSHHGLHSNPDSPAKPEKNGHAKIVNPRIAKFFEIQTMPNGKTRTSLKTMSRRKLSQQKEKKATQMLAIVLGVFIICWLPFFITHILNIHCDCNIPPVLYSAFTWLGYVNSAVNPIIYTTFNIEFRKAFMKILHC

| SMILES | IC50 [µM] |
| --- | --- |
| CCN(CC)CCNC(=O)c1cc(Cl)c(N)cc1OCC(OC)OC [Example 3] | > 1 |
| CCN(CC)CCNC(=O)c1cc(Cl)c(N)cc1OCOCCOC [Example 4] | > 1 |
| CCN(CC)CCNC(=O)c1cc(Cl)c(N)cc1OCC(C)=O [Example 5, 4-Amino-5-chloro-N-[2-(diethylamino)ethyl]-2-(2-propanon-1-yl)-oxybenzamide] | > 1 |
| CCN(CC)CCNC(=O)c1cc(Cl)c(N)cc1OC(C)C(C)=O (stereo not drawn) [Example 7, 4-Amino-2-(butan-2-on-3-yl)oxy-5-chloro-N-[2-(diethylamino)-ethyl]benzamide] | > 1 |
| CCN(CC)CCNC(=O)c1cc(Cl)c(N)cc1OC1CCCCC1=O (stereo not drawn) [Example 9, 4-Amino-5-chloro-2-(cyclohexanon-2-yl)oxy-N-[2-(diethylamino)ethyl]benzamide] | > 1 |
| CCN(CC)CCNC(=O)c1cc(Cl)c(N)cc1OCC(C)O (stereo not drawn) [Example 12, 4-Amino-5-chloro-N-[2-(diethylamino)ethyl]-2-(2-hydroxypropan-1-yl)oxybenzamide] | > 1 |
| CCN(CC)CCNC(=O)c1cc(Cl)c(N)cc1OC(C)C#N (stereo not drawn) [Example 14] | > 1 |
| CCN(CC)CCNC(=O)c1cc(Cl)c(N)cc1OCc1cc(C)no1 [Example 19, 4-Amino-5-chloro-N-[2-(diethylamino)ethyl]-2-(3-methylisoxazol-5-yl)methoxybenzamide] | > 1 |
| CCC(Oc1cc(N)c(Cl)cc1C(=O)NCCN(CC)CC)C(C)=O (stereo not drawn) [Example 25, 4-Amino-5-chloro-N-[2-(diethylamino)ethyl]-2-(pentan-2-on-3-yl)-oxybenzamide] | > 1 |
| CCC(=O)COc1cc(N)c(Cl)cc1C(=O)NCCN(CC)CC [Example 26, 4-Amino-2-(2-butanon-1-yl)oxy-5-chloro-N-[2-(diethylamino)-ethyl]benzamide] | > 1 |
| CCC(=O)C(C)Oc1cc(N)c(Cl)cc1C(=O)NCCN(CC)CC (stereo not drawn) [Example 28, 4-Amino-5-chloro-2-(pentan-3-on-2-yl)oxy-N-(2-diethylaminoethyl)benzamide hydrochloride] | > 1 |
| CCN(CC)CCNC(=O)c1cc(Cl)c(N)cc1OCC1OCCO1 [Example 43] | > 1 |
| CCN(CC)CCNC(=O)c1cc(Cl)c(N)cc1OCCOCCOC [Example 46, 4-Amino-5-chloro-N-[2-(diethylamino)ethyl]-2-(2-methoxyethoxyethyl)oxybenzamide] | > 1 |

Further lines, results first:

| IC50 [µM] | SMILES |
| --- | --- |
| > 1 | CCN(CC)CCNC(=O)c1cc(Cl)c(N)cc1OC(C)C(C)O (mixture of isomers) [Example 41, 4-Amino-5-chloro-N-2-(diethylamino)ethyl]-2-[(2-hydroxy)but-3-yl]oxybenzamide (mixture of threo and erythro isomers)] |
| > 1 | CCN(CC)CCNC(=O)c1cc(Cl)c(N)cc1OCCOC [Example 1, 4-Amino-5-chloro-N-[2-(diethylamino)ethyl]-2-(2-methoxyethoxy)-benzamide] |
| > 1 | CCN(CC)CCNC(=O)c1cc(Cl)c(N)cc1OCCO [Example 2, 4-Amino-5-chloro-N-[2-(diethylamino)ethyl]-2-(2-hydroxyethoxy)benzamide] |
| > 1 | CCN(CC)CCNC(=O)c1cc(Cl)c(N)cc1OCC(=O)c1ccccc1 [Example 6, 4-Amino-2-(2-phenyl-2-oxoethoxy)-5-chloro-N-[2-(diethylamino)ethyl]benzamid] |
| > 1 | CCN(CC)CCNC(=O)c1cc(Cl)c(N)cc1OCC(C)=NO [Example 10, 4-Amino-5-chloro-N-[2-(diethylamino)ethyl]-2-[(2-hydroxyimino)propan-1-yl]oxybenzamide] |
| > 1 | CCN(CC)CCNC(=O)c1cc(Cl)c(N)cc1OCC#N [Example 13, 4-Amino-5-chloro-2-cyanomethoxy-N-[2-(diethylamino)ethyl]benzamide] |
| > 1 | CCN(CC)CCNC(=O)c1cc(Cl)c(N)cc1OCC(=O)OC [Example 15, 4-Amino-5-chloro-N-[2-(diethylamino)ethyl]-2-(2-methoxy-2-oxoethoxy)benzamide] |
| > 1 | CCN(CC)CCNC(=O)c1cc(Cl)c(N)cc1OCC1COC(C)(C)O1 (stereo not drawn) [Example 18, 4-Amino-5-chloro-N-[2-(diethylamino)ethyl]-2-(2,2-dimethyl-1,3-dioxalan-4-yl)methoxybenzamide] |
| > 1 | C=CCC(Oc1cc(N)c(Cl)cc1C(=O)NCCN(CC)CC)C(C)=O (stereo not drawn) [Example 24, 4-Amino-5-chloro-N-[2-(diethylamino)ethyl]-2-(5-hexen-2-on-3-yl)-oxybenzamide hydrochloride] |
| > 1 | CCCC(=O)COc1cc(N)c(Cl)cc1C(=O)NCCN(CC)CC [Example 27, 4-Amino-5-chloro-N-[2-(diethylamino)ethyl]-2-(pentan-2-on-1-yl)oxybenzamide] |
| > 1 | CCN(CC)CCNC(=O)c1cc(Cl)c(N)cc1OCC(=O)C(C)C [Example 29] |
| > 1 | CCN(CC)CCNC(=O)c1cc(Cl)c(N)cc1OCC(=O)Cc1ccccc1 [Example 30] |
| > 1 | CCN(CC)CCNC(=O)c1cc(Cl)c(N)cc1OC(C)(C)C(C)=O [Example 31, 4-Amino-5-chloro-N-2-(diethylamino)ethyl]-2-[(3-methyl)butan-2-on-3-yl]oxybenzamide monohydrate] |
| > 1 | CCN(CC)CCNC(=O)c1cc(Cl)c(N)cc1OCC(O)Cc1ccccc1 (stereo not drawn) [Example 33, 4-Amino-5-chloro-N-[2-(diethylamino)ethyl]-2-[2-(2-hydroxy-3-phenylpropyl)]oxybenzamide] |
| > 1 | CCN(CC)CCNC(=O)c1cc(Cl)c(N)cc1OCc1ccccn1 [Example 45, 4-Amino-5-chloro-N-[2-(diethylamino)ethyl]-2-(2-pyridinomethyl)-oxybenzamide] |
| > 1 | CCN(CC)CCNC(=O)c1cc(Cl)c(N)cc1OCC1=NCCN1 [Example 51, 4-Amino-5-chloro-N-[2-(diethylamino)ethyl]-2-(1H-4,5-dihydroimidazol-2-yl)methoxybenzamide] |
| > 1 | CCN(CC)CCNC(=O)c1cc(Cl)c(N)cc1OCCC1(C)OCCO1 [Example 54] |
